# Results as given in patent US6664224B2, “Quaternary ammonium salt and process for the preparation thereof” (priority 2000, dated 2003).
# System: Escherichia coli K12 W 3110
# Test: Minimum development inhibiting concentration (MIC) against bacteria, broth dilution method
# Format: cell-based
# Details: 37° C. 24 hours
# Experimental: A bacteria solution in stationary state which had been adjusted with a nutrient broth according to an ordinary broth dilution method such that the concentration of bacterial suspension reached 10^6 cell/ml was added to chemical solutions having concentrations which vary stepwise where it was then allowed to stand at a temperature of 37° C. for 24 hours for culture. The bacteria solution was then examined to see if the proliferation of bacteria occurred. Thus, MIC was determined.
# Escherichia coli K12 W 3110 was used as a sample bacterium. Compounds obtained in Examples 1 to 9 and benzalkonium chloride prepared in Comparative Example 1 were used as test samples.
# The compounds obtained in Examples 10 to 19 and benzalkonium chloride were determined for MIC value against Escherichia coli K12 W 3110 in the same manner as in Test Example 3.
row,Compound,MIC Escherichia coli K12 W 3110
1,"1,4-bis(N,N-dioctyl-N-methylammoniomethyl)-2,3,5,6-tetramethylphenylene dichloride [BAMD-8]",1 ppm
2,"1,4-bis(N,N-dioctyl-N-methylammoniomethyl)phenylene di-p-toluenesulfonate [Example 4BAMP-8S]",1 ppm
3,"CCCCCC[N+](C)(CCCC)Cc1ccc(C[N+](C)(CCCC)CCCCCC)cc1.[I-].[I-] (stereo not shown) [4BAMP-4, 6I, 1,4-bis(N-butyl-N-hexyl-N-methylammoniomethyl)phenylene diiodide]",16 ppm
4,"CCCCCCCC[N+](C)(CCCCCCCC)Cc1ccc(C[N+](C)(CCCCCCCC)CCCCCCCC)cc1.[Cl-].[Cl-] [Example 4BAMP-8C, 1,4-bis(N,N-dioctyl-N-methylammoniomethyl)phenylene dichloride]",1 ppm
5,"CCCCCC[N+](C)(CCCCCC)Cc1cccc(C[N+](C)(CCCCCC)CCCCCC)c1.[Cl-].[Cl-] [Example 3BAMP-6C, 1,3-bis(N,N-dihexyl-N-methylammoniomethyl)phenylene dichloride]",1 ppm
6,"1,4-bis(N,N-butyl-N-methylammoniomethyl)-2,3,5,6-tetramethylphenylene dichloride [BAMD-4]",16 ppm
7,"CCCCCCCC[N+](C)(CCCC)Cc1ccc(C[N+](C)(CCCC)CCCCCCCC)cc1.[I-].[I-] (stereo not shown) [4BAMP-4, 8I, 1,4-bis(N-butyl-N-octyl-N-methylammoniomethyl)phenylene diiodide]",2 ppm
8,"CCCCCC[N+](C)(CCCCCC)Cc1ccccc1C[N+](C)(CCCCCC)CCCCCC.[Cl-].[Cl-] [Example 2BAMP-6C, 1,2-bis(N,N-dihexyl-N-methylammoniomethyl)phenylene dichloride]",1 ppm
9,"1,4-bis(N,N-dipentyl-N-methylammoniomethyl)phenylene di-p-tolyenesulfonate [Example 4BAMP-5S]",16 ppm
10,"CCCCC[N+](C)(CCCCC)Cc1c(C)c(C)c(C[N+](C)(CCCCC)CCCCC)c(C)c1C.[Cl-].[Cl-] [BAMD-5, 1,4-bis(N,N-dipentyl-N-methylammoniomethyl)-2,3,5,6-tetramethylphenylene dichloride]",2 ppm

# Same assay, conditions: Escherichia coli, K12W3110, 37° C. 24 hours
row,Compound,MIC
1,"CCCCC[N+](C)(CCCCC)Cc1c(C)cc(C)c(C[N+](C)(CCCCC)CCCCC)c1C.[Cl-].[Cl-] [BAMT-5, 2,4-bis(N,N-dipentyl-N-methylammoniomethyl)-1,3,5-trimethylbenzene dichloride]",2 µg/mL
2,"CCCC[N+](C)(CCCC)Cc1c(C)cc(C)c(C[N+](C)(CCCC)CCCC)c1C.[Cl-].[Cl-] [BAMT-4, 2,4-bis(N,N-dibutyl-N-methylammoniomethyl)-1,3,5-trimethylbenzene dichloride]",8 µg/mL
3,"CCCCCCCC[N+](C)(CCCCCCCC)Cc1c(C)cc(C)c(C[N+](C)(CCCCCCCC)CCCCCCCC)c1C.[Cl-].[Cl-] [BAMT-8, 2,4-bis(N,N-dioctyl-N-methylammoniomethyl)-1,3,5-trimethylbenzene dichloride]",1 µg/mL
4,"CCCCCCCC[N+](C)(CCCCCC)Cc1c(C)cc(C)c(C[N+](C)(CCCCCC)CCCCCCCC)c1C.[Cl-].[Cl-] (stereo not shown) [BAMT-6, 8, 2,4-bis(N-octyl-N-hexyl-N-methylammoniomethyl)-1,3,5-trimethylbenzene dichloride]",1 µg/mL

# System: Erythrocyte
# Test: Minimum hemolytic activity concentration against erythrocyte
# Format: cell-based
# Details: human erythrocyte, 37° C. 1 hour, O.D.540, 50% hemolysis
# Experimental: Human blood was collected. The sample blood was then mixed with the equal amount of alsebar solution (glucose: 2.05 g; NaCl: 0.42 g; sodium citrate: 0.8 g; citric acid: 0.55 g; pH: 6.1). The mixture was then stored at a temperature of 4° C. Shortly before used for experiment, the alsebar stored blood was subjected to centrifugal separation. Thus, the supernatant liquid and the leukocyte layer on the erythrocyte were removed. To the erythrocyte was then added PBS in an amount of […] that of the erythrocyte to obtain a 50% erythrocyte. 10 μl of the 50% erythrocyte was then mixed with 990 μl of each of chemicals which had been diluted with PBS in amounts varying stepwise. The erythrocyte was acted upon by the chemical at a temperature of 37° C. for 1 hour. The mixture was then subjected to centrifugal separation. The supernatant liquid was collected for the measurement of the optical density at 540 nm (O.D.540). Separately, the foregoing procedure was followed except that no chemicals were used to prepare a 0% hemolytic control. The foregoing procedure was followed except that Milliq water was used instead of PBS to prepare a 100% hemolytic control. For the minimum hemolytic activity concentration of chemical, the minimum concentration at which the hemolytic concentration is […] was determined.
row,Compound,Minimum hemolytic activity concentration Erythrocyte
1,"CCCCC[N+](C)(CCCCC)Cc1c(C)cc(C)c(C[N+](C)(CCCCC)CCCCC)c1C.[Cl-].[Cl-] [BAMT-5, 2,4-bis(N,N-dipentyl-N-methylammoniomethyl)-1,3,5-trimethylbenzene dichloride]",800 ppm
2,"CCCCCCCCCCCC[N+](C)(C)Cc1ccc(C[N+](C)(C)CCCCCCCCCCCC)cc1.[Cl-].[Cl-] [Example 4BADMP-12C, 1,4-bis(N-dodecyl-N,N-dimethylammoniomethyl)phenylene dichloride, reference compound]",12.5 ppm
3,"CCCCCCCC[n+]1ccc(SCc2ccc(CSc3cc[n+](CCCCCCCC)cc3)cc2)cc1.[I-].[I-] [Example I-8, 4,4′-(p-xylyldithio)-bis(1-octylpyridinium iodide), reference compound]",50 ppm
4,"1,4-bis(N,N-dipentyl-N-methylammoniomethyl)phenylene di-p-tolyenesulfonate [Example 4BAMP-5S]",400 ppm
5,"CCCCC[N+](C)(CCCCC)Cc1c(C)c(C)c(C[N+](C)(CCCCC)CCCCC)c(C)c1C.[Cl-].[Cl-] [BAMD-5, 1,4-bis(N,N-dipentyl-N-methylammoniomethyl)-2,3,5,6-tetramethylphenylene dichloride]",800 ppm
